According to patent US3939143A, “1-N-isoserylkanamycins and the production thereof” (Zaidan Hojin Biseibutsu Kagaku Kenkyu Kai, priority 1973, dated 1976):
Where two headings read alike, the source gives them in different places.

What was measured:
[1] = test system: Staphylococcus aureus FDA 209P; test: Minimum inhibitory concentration, serial dilution on nutrient agar; format: cell-based; details: FDA209P, read-out: Minimum Inhibitory Concentration
[2] = test system: Staphylococcus aureus Smith; test: as above; format: cell-based; details: read-out: Minimum Inhibitory Concentration
[3] = test system: Staphylococcus aureus Terajima; test: as above; format: cell-based; details: read-out: Minimum Inhibitory Concentration
[4] = test system: Sarcina lutea PCI 1001; test: as above; format: cell-based; details: Micrococcus luteus, read-out: Minimum Inhibitory Concentration
[5] = test system: Bacillus anthracis; test: microbe, parasite or virus in culture; format: cell-based; details: 18 h, read-out: Minimum Inhibitory Concentration
[6] = test system: Bacillus subtilis PCI 219; test: Minimum inhibitory concentration, serial dilution on nutrient agar; format: cell-based; details: read-out: Minimum Inhibitory Concentration
[7] = test system: Bacillus subtilis NRRL B-558; test: as above; format: cell-based; details: read-out: Minimum Inhibitory Concentration
[8] = test system: Bacillus cereus ATCC 10702; test: as above; format: cell-based; details: read-out: Minimum Inhibitory Concentration
[9] = test system: Corynebacterium bovis 1810; test: as above; format: cell-based; details: read-out: Minimum Inhibitory Concentration
[10] = test system: Mycobacterium smegmatis ATCC 607; test: as above; format: cell-based; details: Mycolicibacterium smegmatis, read-out: Minimum Inhibitory Concentration
[11] = test system: Shigella dysenteriae JS 11910; test: as above; format: cell-based; details: JS11910, 18 h, read-out: Minimum Inhibitory Concentration
[12] = test system: Escherichia coli K-12 ML 1630; test: as above; format: cell-based; details: K12ML1630, 37°C, 18 hours
Protocol: (§1) The minimum inhibitory concentrations (mcg/ml) of 1-N-DL-isoserylkanamycin,1-N-DL-isoserylkanamycin B and 1-N-DL-isoseryl-3',4'-dideoxykanamycin B against various microorganisms were determined according to the serial dilution method using nutrient agar medium at 37°C, the estimation being effected after 18 hours incubation. For comparison purposes, the minimum inhibitory concentrations of kanamycin, kanamycin B and 3',4'-dideoxykanamycin B were also determined in the same manner and under the same conditions as mentioned above.
(§2) The antibacterial spectra of 1-N-DL-isoseryl-kanamycin (abbreviated as 1-IS-KM), 1-N-DL-isoseryl-kanamycin B (abbreviated as 1-IS-KMB) and 1-N-DL-isoseryl-3',4'-dideoxykanamycin B (abbreviated as 1-IS-DKB) are shown in the following table together with those of kanamycin (abbreviatedas KM), kanamycin B (abbreviated as KMB) and 3',4'-dideoxykanamycin B (abbreviated as DKB).

[13] = test system: Pseudomonas aeruginosa A3; test: as above; format: cell-based; details: 37°C, 18 hours
Protocol: as §1, §2

[14] = test system: Pseudomonas aeruginosa TI-13; test: as above; format: cell-based; details: TI13, 37°C, 18 hours
Protocol: as §1, §2

[15] = test system: Shigella flexneri 4b JS 11811; test: as above; format: cell-based; details: 4BJS11811, 37°C, 18 hours
Protocol: as §1, §2

[16] = test system: Shigella sonnei JS 11746; test: as above; format: cell-based; details: JS11746, 37°C, 18 hours
Protocol: as §1, §2

[17] = test system: Salmonella typhosa T-63; test: as above; format: cell-based; details: Salmonella enterica, 18 h, read-out: Minimum Inhibitory Concentration
[18] = test system: Salmonella enteritidis 1891; test: as above; format: cell-based; details: Salmonella enterica, read-out: Minimum Inhibitory Concentration
[19] = test system: Proteus vulgaris OX 19; test: as above; format: cell-based; details: read-out: Minimum Inhibitory Concentration
[20] = test system: Klebsiella pneumoniae PCI 602; test: as above; format: cell-based; details: read-out: Minimum Inhibitory Concentration
[21] = test system: Klebsiella pneumoniae 22 No. 3038; test: as above; format: cell-based; details: read-out: Minimum Inhibitory Concentration
[22] = test system: Escherichia coli NIHJ; test: as above; format: cell-based; details: read-out: Minimum Inhibitory Concentration
[23] = test system: Escherichia coli K-12; test: as above; format: cell-based; details: read-out: Minimum Inhibitory Concentration
[24] = test system: Escherichia coli K-12 ML 1629; test: as above; format: cell-based; details: read-out: Minimum Inhibitory Concentration
[25] = test system: Escherichia coli K-12 ML 1410; test: as above; format: cell-based; details: read-out: Minimum Inhibitory Concentration
[26] = test system: Escherichia coli LA290 R55; test: as above; format: cell-based; details: LA290R55, 18 h, read-out: Minimum Inhibitory Concentration
[27] = test system: Escherichia coli LA290 R56; test: as above; format: cell-based; details: LA290R56, 18 h, read-out: Minimum Inhibitory Concentration
[28] = test system: Escherichia coli LA290 R64; test: as above; format: cell-based; details: LA290R64, 18 h, read-out: Minimum Inhibitory Concentration
[29] = test system: Escherichia coli W677; test: as above; format: cell-based; details: read-out: Minimum Inhibitory Concentration
[30] = test system: Escherichia coli JR66/W677; test: as above; format: cell-based; details: read-out: Minimum Inhibitory Concentration
[31] = test system: Pseudomonas aeruginosa No.12; test: as above; format: cell-based; details: read-out: Minimum Inhibitory Concentration
[32] = test system: Pseudomonas aeruginosa GN315; test: as above; format: cell-based; details: read-out: Minimum Inhibitory Concentration
[33] = test system: Pseudomonas aeruginosa 99; test: as above; format: cell-based; details: read-out: Minimum Inhibitory Concentration
[34] = test system: gram-negative and gram-positive bacteria; test: antibacterial activity, in words; format: cell-based; details: gram-negative and gram-positive bacteria sensitive to kanamycins
Protocol: as §1, §2

[35] = test system: drug-resistant strains of Escherichia coli and Pseudomonas aeruginosa; test: antibacterial activity against drug-resistant strains, in words; format: cell-based
[36] = acute toxicity upon intravenous injection in mice; format: in vivo; details: mouse, in vivo; intravenous injection, mice
[37] = test system: Escherichia coli K-12 ML 1410 R81; test: Minimum inhibitory concentration, serial dilution on nutrient agar; format: cell-based; details: 18 h, read-out: Minimum Inhibitory Concentration
[38] = Corynebacterium bovis, 1810, 37°C, 18 hours
[39] = Pseudomonas aeruginosa, 99, 18 h
[40] = Corynebacterium bovis, 1810, 18 h

NCC(O)C(=O)N[C@@H]1C[C@H](N)[C@@H](O[C@H]2O[C@H](CN)CC[C@H]2N)[C@H](O)[C@H]1O[C@H]1O[C@H](CO)[C@@H](O)[C@H](N)[C@H]1O (mixture of isomers) [1-IS-DKB, 1-N-DL-isoseryl-3',4'-dideoxykanamycin B]
3.13 µg/mL: MIC [11] | MIC [13] | MIC [14] | MIC [15] | MIC [16] | MIC ([30]; JR66/W677, 18 h) | MIC [33, 39]
0.2 µg/mL: MIC ([19]; OX19, 37°C, 18 hours)
0.39 µg/mL: MIC ([18]; 37°C, 18 hours) | MIC ([20]; PCI602, 37°C, 18 hours) | MIC [27] | MIC [28]
12.5 µg/mL: MIC ([32]; GN315, 37°C, 18 hours)
0.78 µg/mL: MIC ([1]; 37°C, 18 hours) | MIC [9, 38] | MIC [17] | MIC ([29]; W677, 37°C, 18 hours)
1.56 µg/mL: MIC ([4]; PCI1001, 37°C, 18 hours) | MIC ([8]; ATCC10702, 37°C, 18 hours) | MIC [12] | MIC ([21]; 22NO.3038, 37°C, 18 hours) | MIC ([22]; 37°C, 18 hours) | MIC ([23]; K12, 37°C, 18 hours) | MIC ([24]; K12ML1629, 37°C, 18 hours) | MIC ([25]; K12ML1410, 37°C, 18 hours) | MIC [26] | MIC ([31]; NO.12, 37°C, 18 hours)
> 100 mg/kg: LD50 [36]
< 0.2 µg/mL: MIC ([2]; 37°C, 18 hours) | MIC ([3]; 37°C, 18 hours) | MIC [5] | MIC ([6]; PCI219, 37°C, 18 hours) | MIC ([7]; NRRLB558, 37°C, 18 hours) | MIC ([10]; ATCC607, 37°C, 18 hours)
high antibacterial activity: antibacterial activity [34] | antibacterial activity [35]

NCC(O)C(=O)N[C@@H]1C[C@H](N)[C@@H](O[C@H]2O[C@H](CN)[C@@H](O)[C@H](O)[C@H]2O)[C@H](O)[C@H]1O[C@H]1O[C@H](CO)[C@@H](O)[C@H](N)[C@H]1O (mixture of isomers) [1-IS-KM, 1-N-DL-isoserylkanamycin]
0.2 µg/mL: MIC ([2]; 37°C, 18 hours)
< 0.2 µg/mL: MIC ([3]; 37°C, 18 hours) | MIC [5] | MIC ([6]; PCI219, 37°C, 18 hours) | MIC ([7]; NRRLB558, 37°C, 18 hours)
high antibacterial activity: antibacterial activity [34] | antibacterial activity [35]
3.12 µg/mL: MIC ([4]; PCI1001, 37°C, 18 hours)
6.25 µg/mL: MIC ([33]; Pseudomonas aeruginosa, 99, 37°C, 18 hours)
1.56 µg/mL: MIC [9, 40] | MIC [12] | MIC [16] | MIC ([21]; 22NO.3038, 18 h) | MIC ([22]; 18 h) | MIC ([24]; K12ML1629, 18 h) | MIC ([25]; K12ML1410, 18 h) | MIC [37] | MIC [26]
3.13 µg/mL: MIC [11] | MIC [13] | MIC [14] | MIC [15] | MIC ([30]; JR66/W677, 18 h)
0.78 µg/mL: MIC ([1]; 37°C, 18 hours) | MIC ([8]; ATCC10702, 37°C, 18 hours) | MIC [17] | MIC ([18]; 37°C, 18 hours) | MIC ([23]; K12, 37°C, 18 hours) | MIC [27] | MIC [28] | MIC ([29]; W677, 37°C, 18 hours) | MIC ([31]; NO.12, 37°C, 18 hours)
0.39 µg/mL: MIC ([10]; ATCC607, 37°C, 18 hours) | MIC ([19]; OX19, 37°C, 18 hours) | MIC ([20]; PCI602, 37°C, 18 hours)
> 100 µg/mL: MIC ([32]; GN315, 37°C, 18 hours)
> 200 mg/kg: LD50 [36]

NCC(O)C(=O)N[C@@H]1C[C@H](N)[C@@H](O[C@H]2O[C@H](CN)[C@@H](O)[C@H](O)[C@H]2N)[C@H](O)[C@H]1O[C@H]1O[C@H](CO)[C@@H](O)[C@H](N)[C@H]1O (mixture of isomers) [1-IS-KMB, 1-N-DL-isoserylkanamycin B]
3.13 µg/mL: MIC [12] | MIC [15] | MIC ([22]; 18 h) | MIC ([24]; K12ML1629, 18 h) | MIC [37]
50 µg/mL: MIC ([32]; GN315, 37°C, 18 hours)
> 100 mg/kg: LD50 [36]
0.78 µg/mL: MIC ([10]; ATCC607, 37°C, 18 hours) | MIC [17] | MIC ([18]; 37°C, 18 hours) | MIC ([19]; OX19, 37°C, 18 hours) | MIC ([20]; PCI602, 37°C, 18 hours) | MIC [27] | MIC [28] | MIC ([29]; W677, 37°C, 18 hours)
12.5 µg/mL: MIC ([30]; JR66/W677, 37°C, 18 hours)
< 0.2 µg/mL: MIC ([2]; 37°C, 18 hours) | MIC ([3]; 37°C, 18 hours) | MIC [5] | MIC ([6]; PCI219, 37°C, 18 hours) | MIC ([7]; NRRLB558, 37°C, 18 hours)
6.25 µg/mL: MIC ([4]; PCI1001, 18 h) | MIC [11] | MIC [13] | MIC [14] | MIC [16] | MIC ([21]; 22NO.3038, 18 h) | MIC ([31]; NO.12, 18 h) | MIC [33, 39]
1.56 µg/mL: MIC ([1]; 18 h) | MIC ([8]; ATCC10702, 37°C, 18 hours) | MIC [9, 38] | MIC ([23]; K12, 37°C, 18 hours) | MIC ([25]; K12ML1410, 37°C, 18 hours) | MIC [26]
high antibacterial activity: antibacterial activity [34] | antibacterial activity [35]

NC[C@H]1O[C@H](O[C@H]2[C@H](O)[C@@H](O[C@H]3O[C@H](CO)[C@@H](O)[C@H](N)[C@H]3O)[C@H](N)C[C@@H]2N)[C@H](N)[C@@H](O)[C@@H]1O [KMB, kanamycin B, reference compound]
0.39 µg/mL: MIC ([1]; 18 h) | MIC ([29]; W677, 18 h)
3.13 µg/mL: MIC [11] | MIC [15] | MIC [27] | MIC [28]
0.78 µg/mL: MIC ([8]; ATCC10702, 18 h) | MIC ([10]; ATCC607, 18 h) | MIC ([19]; OX19, 18 h) | MIC ([20]; PCI602, 18 h) | MIC ([22]; 18 h) | MIC ([23]; K12, 18 h) | MIC ([25]; K12ML1410, 18 h)
< 0.2 µg/mL: MIC ([2]; 18 h) | MIC ([3]; 18 h) | MIC [5] | MIC ([6]; PCI219, 18 h) | MIC ([7]; NRRLB558, 18 h)
> 100 µg/mL: MIC [12] | MIC ([21]; 22NO.3038, 18 h) | MIC ([24]; K12ML1629, 18 h) | MIC [37] | MIC ([30]; JR66/W677, 18 h) | MIC ([32]; GN315, 18 h) | MIC [33, 39]
0.2 µg/mL: MIC [17]
100 µg/mL: MIC [14]
1.56 µg/mL: MIC ([4]; PCI1001, 18 h) | MIC [9, 40] | MIC [16] | MIC ([18]; 18 h)
12.5 µg/mL: MIC [26] | MIC ([31]; NO.12, 18 h)
50 µg/mL: MIC [13]
